How the values were obtained:
Format in all cases: functional
Mus musculus [1] = organism: Mus musculus; assay: Anti-oxidative activity against ALS mouse model assessed as animal survival relative to control
Mus musculus [2] = organism: Mus musculus; assay: Anti-inflammatory activity against ALS mouse model harbouring human G93A SOD1 mutant assessed as survival relative to control
Mus musculus [3] = organism: Mus musculus; assay: Effect on mitochondrial protection in ALS mouse model assessed as survival relative to control
[4] = molecular target: Superoxide dismutase [Cu-Zn] (Homo sapiens) (UniProt P00441); assay: Effect on human SOD1 protein homeostasis in ALS mouse model assessed as survival relative to control
Mus musculus [5] = organism: Mus musculus; assay: Anti-oxidative activity against ALS transgenic mouse model harbouring human G93A SOD1 (B6SJL-TgN(SOD1-G93A)1Gur mutant assessed as survival relative to control
Mus musculus [6] = organism: Mus musculus; assay: Anti-excitotoxic activity against ALS transgenic mouse model harbouring human G93A SOD1 (B6SJL-TgN(SOD1-G93A)1Gur mutant assessed as survival relative to control
Mus musculus [7] = organism: Mus musculus; assay: Anti-inflammatory activity against ALS transgenic mouse model harbouring human G93A SOD1 (B6SJL-TgN(SOD1-G93A)1Gur mutant assessed as survival relative to control
Mus musculus [8] = organism: Mus musculus; assay: Anti-inflammatory activity against ALS mouse model assessed as animal survival relative to control
Mus musculus [9] = organism: Mus musculus; assay: Anti-apoptotic activity against ALS mouse model expressing human G93A SOD1 mutant assessed as survival relative to control
Mus musculus [10] = organism: Mus musculus; assay: Anti-apoptotic activity against ALS mouse model assessed as animal survival relative to control
Mus musculus [11] = organism: Mus musculus; assay: Anti-inflammatory activity against ALS B6SJLF1/J mouse model assessed as animal survival relative to control
Mus musculus [12] = organism: Mus musculus; assay: Anti-excitotoxic activity against ALS mouse model assessed as animal survival relative to control

Sequence of Superoxide dismutase [Cu-Zn] (Homo sapiens) (P00441 whole entry): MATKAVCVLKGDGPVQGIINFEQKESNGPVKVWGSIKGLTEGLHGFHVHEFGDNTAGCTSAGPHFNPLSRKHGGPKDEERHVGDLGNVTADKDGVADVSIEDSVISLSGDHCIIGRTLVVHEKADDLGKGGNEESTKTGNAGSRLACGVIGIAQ

C#CCN(C)Cc1ccc(O)c2ncccc12
Survival (Mus musculus [1]): 6%

CN1CCCCC1Cn1cc(C(=O)c2cc([N+](=O)[O-])ccc2I)c2ccccc21 (centres undefined)
Survival (Mus musculus [2]): 10%

CN(CC(=O)O)C(=N)N.O
Survival (Mus musculus [3]): 15%

O=C([O-])[O-].[Li+].[Li+]
Survival [4]: 36%

[O-][n+]1cccc(/C(Cl)=N/OC[C@H](O)CN2CCCCC2)c1
Survival [4]: 9%

CC(=O)N[C@@H](CS)C(=O)O [ACETYLCYSTEINE]
Survival (Mus musculus [5]): 7%

CO/N=C(\C(=O)N[C@@H]1C(=O)N2C(C(=O)O)=C(CSc3nc(=O)c(O)nn3C)CS[C@H]12)c1csc(N)n1 [CEFTRIAXONE]
Survival (Mus musculus [6]): 8%

CC1=C(O)C(=O)C=C2C1=CC=C1[C@@]2(C)CC[C@@]2(C)[C@@H]3C[C@](C)(C(=O)O)CC[C@]3(C)CC[C@]12C [CELASTROL]
Survival (Mus musculus [7]): 9%

Cc1ccc(-c2cc(C(F)(F)F)nn2-c2ccc(S(N)(=O)=O)cc2)cc1 [CELECOXIB]
Survival (Mus musculus [8]): 25%

Nc1cccc2c1CN(C1CCC(=O)NC1=O)C2=O (centres undefined) [LENALIDOMIDE]
Survival (Mus musculus [7]): 18%

COc1ccc2[nH]cc(CCNC(C)=O)c2c1 [MELATONIN]
Survival (Mus musculus [9]): 7%

CC12CC3CC(C)(C1)CC(N)(C3)C2 [MEMANTINE]
Survival (Mus musculus [6]): 5%

CN(C)c1ccc(O)c2c1C[C@H]1C[C@H]3[C@H](N(C)C)C(O)=C(C(N)=O)C(=O)[C@@]3(O)C(O)=C1C2=O [MINOCYCLINE]
Survival (Mus musculus [10]): 6%

COC1=C(OC)C(=O)C(CCCCCCCCCC[P+](c2ccccc2)(c2ccccc2)c2ccccc2)=C(C)C1=O.CS(=O)(=O)[O-] [MITOQUINONE MESYLATE]
Survival (Mus musculus [5]): 4%

CC(C)CCC[C@@H](C)[C@H]1CC[C@H]2[C@@H]3CCC4=CC(=NO)CC[C@]4(C)[C@H]3CC[C@]12C [OLESOXIME]
Survival (Mus musculus [3]): 10%

CCc1ccc(CCOc2ccc(CC3SC(=O)NC3=O)cc2)nc1 (centres undefined) [PIOGLITAZONE]
Survival (Mus musculus [11]): 8%

Nc1nc2ccc(OC(F)(F)F)cc2s1 [RILUZOLE]
Survival (Mus musculus [12]): 10%

O=C([O-])CCCc1ccccc1.[Na+] [SODIUM PHENYLBUTYRATE]
Survival (Mus musculus [10]): 22%

O=C1CCC(N2C(=O)c3ccccc3C2=O)C(=O)N1 (centres undefined) [THALIDOMIDE]
Survival (Mus musculus [8]): 12%
